Assay results reported in patent US20240300980A1, “HETEROCYCLIC COMPOUNDS AS KRAS INHIBITOR, AND PREPARATION THEREFOR AND USE THEREOF IN TREATMENT” (SHANGHAI KECHOW PHARMA, INC., priority 2021, published 2024).

The compounds below were run on AGS cells (KRAS^G12D) (assay: Detection of cell proliferation in vitro by MTT/MTS method (cell activity experiment)). Details: AGS cells; MTT/MTS; 3 days of drug treatment; read-out: AGS IC50.
Format: cell-based
Outline: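 After 3-day compound exposure (final DMSO 0.5%), viability of AGS (KRAS G12D) cells, plated 1000/well one day before dosing, was measured at 490 nm following 4 h MTT or MTS incubation. IC50 was fitted from dose–effect curves relative to DMSO-treated wells.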
For `C#Cc1c(F)ccc2cc(O)cc(-c3ccc4c(N5C[C@H]6CC[C@@H](C5)[C@@H]6F)nc(OC[C@@]56CCCN5C[C@H](F)C6)nc4c3F)c12` [Example 123, 5-ethynyl-6-fluoro-4-(8-fluoro-4-((1R,5S, 8R)-8-fluoro-3-azabicyclo[3.2.1]octan-3-yl)-2-(((2R,7aS)-2-fluorotetrahydro-1H-pyrrolizin-7a(5H)-yl)methoxy)quinazolin-7-yl)naphthalen-2-ol], the IC50 was greater than 2500 nM.

Same assay, conditions: Homo sapiens, AGS, 72 h, AGS cells; MTT/MTS; 3 days of drug treatment; read-out: AGS IC50
`Oc1cc2c(c(-c3ccc4c(N5C[C@H]6CC[C@@H](C5)N6)nc(OC[C@@]56CCCN5C[C@H](F)C6)nc4c3F)c1)C=CC2` [Example 306, 4-(4-((1R,5S)-3,8-diazabicyclo[3.2.1]octan-3-yl)-8-fluoro-2-(((2R,7aS)-2-fluorotetrahydro-1H-pyrrolizin-7a(5H)-yl)methoxy)quinazolin-7-yl)-1H-inden-6-ol] showed an IC50 of 366 nM. For `CC1CCCc2cc(O)cc(C3=C(F)c4nc(OC[C@@]56CCCN5C[C@H](F)C6)nc(N5C[C@H]6CC[C@@H](C5)N6)c4C4=NCCN43)c21` (stereo partly drawn) [Example 407, 4-(10-((1R,5S)-3,8-diazabicyclo[3.2.1]octan-3-yl)-6-fluoro-8-(((2R,7aS)-2-fluorotetrahydro-1H-pyrrolizin-7a(5H)-yl)methoxy)-2,3-dihydroimidazo[1′,2′:1,2]pyrido[4,3-d]pyrimidin-5-yl)-5-methyl-5,6,7,8-tetrahydronaphthalen-2-ol], the IC50 was 35 nM. With `Oc1cc(-c2ncc3c(N4C[C@H]5CC[C@@H](C4)O5)nc(OC[C@@]45CCCN4C[C@H](F)C5)nc3c2F)c2c(F)c(F)ccc2c1` [Example 16, 4-(4-((1R,5S)-8-oxa-3-azabicyclo[3.2.1]octan-3-yl)-8-fluoro-2-(((2R,7aS)-2-fluorotetrahydro-1H-pyrrolizin-7a(5H)-yl)methoxy)pyrido[4,3-d]pyrimidin-7-yl)-5,6-difluoronaphthalen-2-ol] the IC50 was 315 nM. `C#Cc1c(F)ccc2cc(O)cc(-c3ncc4c(N5C[C@H]6CC[C@@H](C5)C6(F)F)nc(OC[C@@]56CCCN5C[C@H](F)C6)nc4c3F)c12` [Example 30, 4-(4-((1R,5S)-8,8-difluoro-3-azabicyclo[3.2.1]octan-3-yl)-8-fluoro-2-(((2R,7aS)-2-fluorotetrahydro-1H-pyrrolizin-7a(5H)-yl)methoxy)pyrido[4,3-d]pyrimidin-7-yl)-5-ethynyl-6-fluoronaphthalen-2-ol] showed an IC50 greater than 2500 nM. With `C#Cc1c(F)ccc2cc(O)cc(-c3ccc4c(N5C[C@H]6CC[C@@H](C5)S6(=O)=O)nc(OC[C@@]56CCCN5C[C@H](F)C6)nc4c3F)c12` [Example 160, (1R,5S)-3-(7-(8-ethynyl-7-fluoro-3-hydroxynaphthalen-1-yl)-8-fluoro-2-(((2R,7aS)-2-fluorotetrahydro-1H-pyrrolizin-7a(5H)-yl)methoxy)quinazolin-4-yl)-8-thia-3-azabicyclo[3.2.1]octane 8,8-dioxide] the IC50 was greater than 2500 nM. In the case of `C#Cc1c(F)ccc2cc(O)cc(-c3ccc4c(N5C[C@H]6CC[C@@H](C5)N6)c(C#N)c(OC[C@@]56CCCN5C[C@H](F)C6)nc4c3F)c12` [Example 177, 4-((1R,5S)-3,8-diazabicyclo[3.2.1]octan-3-yl)-7-(8-ethynyl-7-fluoro-3-hydroxynaphthalen-1-yl)-8-fluoro-2-(((2R,7aS)-2-fluorotetrahydro-1H-pyrrolizin-7a(5H)-yl)methoxy)quinoline-3-carbonitrile], the IC50 is reported as 530 nM. In the case of `C[C@@H]1OCC2(CCN(c3nc(OC[C@@]45CCCN4C[C@H](F)C5)nc4c(F)c(-c5cc(O)cc6ccc(F)c(F)c56)ncc34)CC2)[C@@H]1N` [Example 57, 4-(4-((3S,4S)-4-amino-3-methyl-2-oxa-8-azaspiro[4.5]decan-8-yl)-8-fluoro-2-(((2R, 7aS)-2-fluorotetrahydro-1H-pyrrolizin-7a(5H)-yl)methoxy)pyrido[4,3-d]pyrimidin-7-yl)-5,6-difluoronaphthalen-2-ol], the IC50 is reported as greater than 2500 nM.
